Laboratory results published in patent US12168781B2, “Production method for T cells or NK cells, medium for culturing T cells or NK cells, method for culturing T cells or NK cells, method for maintaining undifferentiated state of undifferentiated T cells, and growth-accelerating agent for T cells or NK cells” (KIRIN HOLDINGS KABUSHIKI KAISHA, priority 2018, dated 2024).

System: T-iPS-T cells
Assay: Feeder-free culture of T-iPS-T cells, FACS count of PI-negative cells and CD45RA(+)CCR7(+) cells
Type: cell-based, human
Conditions: 6 days; for Number of CD45RA+CCR7+ cells: DMSO 3891 ± 3170; for Cell number: DMSO 16096 ± 10785
Experimental: After washing, the cells were resuspended in the staining solution containing PI. Half the amount was analyzed using a BD LSR Fortessa cytometer (BD Bioscience) equipped with HTS, and all cells were recorded.
The concentration dependence of the bisbenzylisoquinoline alkaloid represented by the formula (X-1) or the formula (X-2) in feeder-free proliferation of T-iPS-T cells was examined. T-iPS-T cells were cultured using alpha-MEM medium supplemented with 15% FBS, 1% PSG, PAA (50 μg/mL), ITS-G, IL-7 (5 ng/mL), IL-12 (50 ng/mL), IL-15 (5 ng/mL), IL-18 (50 ng/mL), IL-21 (20 ng/mL), and z-VAD-fmk (10 μM).
The effect on culturing of T-iPS-T cells was evaluated by comparing a known compound that contributes to the proliferation of memory T cells with berbamine. […] DMSO (0.1%) that is a solvent for the compound was used as a control.
The number of events of PI-negative cells and the number of events of CD45RA(+)CCR7(+) cells in the PI-negative cells, which were analyzed by FlowJo 9, were used as data. Note that in a statistical analysis, a Student's t-test was used (*: p<0.05).
The effect of the combined use of berbamine with a MAPK cascade inhibitor on the proliferation of memory T cells was examined. […] The final concentration of each compound was set to 1 μM. DMSO (0.1%) that is a solvent for the compound was used as a control.
The number of events (#Cells) of CD45RA(+)CCR7(+) cells in the PI-negative cell population analyzed by FlowJo 9 was plotted and graphed. Note that in a statistical analysis, a Student's t-test was used (*: p<0.05, **P<0.01, ***P<0.001, ****P<0.0001).

Row | Compound | Number of CD45RA+CCR7+ cells (1 nM) | Cell number (1 nM) | Number of CD45RA+CCR7+ cells (3 nM) | Cell number (3 nM) | Number of CD45RA+CCR7+ cells (10 nM) | Cell number (10 nM) | Number of CD45RA+CCR7+ cells (30 nM) | Cell number (30 nM) | Number of CD45RA+CCR7+ cells (100 nM) | Cell number (100 nM) | Number of CD45RA+CCR7+ cells (300 nM) | Cell number (300 nM) | Number of CD45RA+CCR7+ cells (1 μM) | Cell number (1 μM) | Number of CD45RA+CCR7+ cells (3 μM) | Cell number (3 μM) | Number of CD45RA+CCR7+ cells (10 μM) | Cell number (10 μM)
1 | COc1ccc2cc1Oc1ccc(cc1)C[C@H]1c3c(cc4c(c3Oc3cc5c(cc3OC)CCN(C)[C@@H]5C2)OCO4)CCN1C [Cepharanthine, cepharanthine] | 5429 ± 3207 ** | 18312 ± 7127 | 5256 ± 3168 | 19212 ± 8368 | 5632 ± 3014 *** | 20590 ± 9995 | 7764 ± 3495 ** | 29158 ± 12980 * | 9486 ± 4802 * | 41856 ± 9113 ** | 13060 ± 7584 * | 52923 ± 5313 ** | 10741 ± 5793 | 48800 ± 17971 * | 9245 ± 4682 * | 31965 ± 19694 | 1447 ± 2117 | 4884 ± 8378
2 | COc1cc2c3cc1Oc1c(OC)c(OC)cc4c1[C@@H](Cc1ccc(OC(=O)c5ccc([N+](=O)[O-])cc5)c(c1)Oc1ccc(cc1)C[C@@H]3N(C)CC2)N(C)CC4 [E6 Berbamine, E6-berbamine] | 6440 ± 4121 * | 20795 ± 11427 ** | 6205 ± 4137 * | 19420 ± 9845 ** | 6015 ± 4682 | 22404 ± 11035 *** | 7410 ± 4691 * | 28009 ± 13327 * | 10775 ± 5788 * | 44562 ± 11985 ** | 12148 ± 6414 * | 55682 ± 3508 ** | 5075 ± 3582 | 26964 ± 23925 | 2080 ± 3520 | 16367 ± 26569 | 1791 ± 3538 | 8441 ± 16764
